# In US8598342B2, “Methods and compounds for antimicrobial intervention” (President and Fellows of Harvard College, priority 2008, dated 2013):
# Target: T1, S. aureus TarD (Staphylococcus aureus, UniProt Q2G2X2)
# T1 construct: made in house
# T1 sequence (Q2G2X2 1-132): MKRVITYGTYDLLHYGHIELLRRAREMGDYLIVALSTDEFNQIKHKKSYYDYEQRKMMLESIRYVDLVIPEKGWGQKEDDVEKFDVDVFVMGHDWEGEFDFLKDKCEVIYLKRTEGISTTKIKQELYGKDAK
# Test: In vitro enzyme inhibition assay, TarD (radiometric)
# Type: biochemical
# Conditions: targocil 50 μg/mL; enzyme 200 nM
# Protocol: S. aureus TarB, D, F, I, and L were cloned, overexpressed and purified as described previously (S. Brown, Y. H. Zhang, S. Walker, Chemistry & Biology 15, 12, Jan. 2008.) Radiometric in vitro assays were run to test the inhibitory effects of targocil on Tar B, D, F, and L, while TarI was assayed for targocil inhibition using an HPLC assay using conditions similar to those previously reported (ibid). See below for exact reaction conditions. […] In each case, a reaction with no targocil served as a negative control (active enzymatic reaction) and a reaction with heat-treated enzyme served as a positive control (no enzymatic reaction). Targocil was incubated with all reaction components except the substrates at room temperature. After 10 minutes, substrates were added and the reactions were allowed to proceed for 60 minutes. The reactions were quenched with DMF and the products were imaged/monitored as previously described (ibid).
# TarD in vitro inhibition assay protocol and data. Each 3 μL reaction contained 50 mM HEPES pH 8, 10 mM MgCl2, 1 mM DTT, 1 μM [14C]-glycerol-3-phosphate, 9 μM glycerol-3-phosphate, 20 μM CTP, 200 nM TarD. The reactions were quenched with 3 μL DMF, and 2 μL of the reaction mixture were combined with 2 μL 2× loading dye (40% glycerol, 0.2% bromophenol blue) and loaded onto a 20% acrylamide/0.25M TBE gel as described previously (ibid.). […]
smiles,measurement,value
"CCN(CC)c1nc2c(S(=O)(=O)c3ccccc3)nnn2c2ccc(Cl)cc12 [7-chloro-N,N-diethyl-3-(phenylsulfonyl)-[1,2,3]triazolo[1,5-a]quinazolin-5-amine]",inhibition of TarD,None of these enzymes was inhibited
